Laboratory results reported in paper PMC11574021, “CEP192 localises mitotic Aurora-A activity by priming its interaction with TPX2” (The EMBO Journal, 2024).

Experiments:
Assay type in all cases: cell-based, Homo sapiens
[1] = tested on: Aurora-A-pT288 in U251 cells; experiment: Western blot densitometry of Aurora-A-pT288, mitotic U251 cells; conditions: mitotic U251 (and RPE1) lysates, siRNA 48 h, in words
Experimental: For western blotting analysis of mitotic lysates, cells were synchronised in mitosis with 10 µM S-Trityl-L-cysteine (STLC, Bio-Techne, 2191-50), an Eg5 inhibitor, for 20 h prior to collecting by mitotic shake-off. For measuring monopolar spindle diameter and counting centriolar foci by immunofluorescence, cells were treated with 10 µM STLC for 1 h and 4 h prior to fixation, respectively.
(§1) As noted in the figures, the following drugs were incubated with cells for 30 min at 37 °C: Aurora-B-i ZM447439 2 µM [10 mM], PLK1-I BI2536 1 µM [10 mM] and Aurora-A-i MLN8237 [5 mM] was used at 250 and 500 nM in U251 and RPE1 cells, respectively. Drugs were resuspended in DMSO to the stock concentrations indicated in square brackets. BI2536 (HY-50698), MLN8237 (HY-10971) and ZM447439 (HY-10128) were all purchased from MedChemExpress. For western blotting, a 20-min pre-treatment with proteasome inhibitor (20 µM MG-132, MerckMillipore, 47490 [20 mM]) was required prior to the addition of DMSO control or kinase inhibitors. This prevented mitotic exit as a consequence of checkpoint override following Aurora-A and Aurora-B inhibitor addition.
Cells were lysed on ice for 30 min in lysis buffer (50 mM tris pH 8.0, 300 mM NaCl, 0.2%(v/v) NP-40, 10%(v/v) glycerol, protease inhibitor cocktail C, phosphatase inhibitor cocktail 3 (Sigma, 1:200 dilution), 100 nM okadaic acid (Enzo, ALX-350-003-C100)). Lysates were then centrifuged at 14,000 × g, 15 min, 4 °C, the supernatants were transferred to a fresh tube, and the pellet was discarded. Protein concentrations were measured by Bradford assay using Protein Assay Dye Reagent Concentrate (Bio-Rad Laboratories, 5000006). NuPage LDS sample buffer, supplemented with NuPAGE sample reducing agent (Invitrogen) were added prior to boiling for 10 min at 90 °C. […]
Densitometric quantification of western blots was also performed in ImageJ. Intensity was measured in a rectangular region of interest (ROI) around each band. […] An adjacent region was also measured to account for background intensity.

[2] = tested on: PPP1CA-pT320, PRC1-pT481 and Histone-H3-pS10 in U251 cells; experiment: Western blot, mitotic phosphorylations (PPP1CA-pT320, PRC1-pT481, Histone-H3-pS10), asynchronous U251; conditions: asynchronous U251, siRNA 48 h
Experimental: Cells were lysed on ice for 30 min in lysis buffer (50 mM tris pH 8.0, 300 mM NaCl, 0.2%(v/v) NP-40, 10%(v/v) glycerol, protease inhibitor cocktail C, phosphatase inhibitor cocktail 3 (Sigma, 1:200 dilution), 100 nM okadaic acid (Enzo, ALX-350-003-C100)). Lysates were then centrifuged at 14,000 × g, 15 min, 4 °C, the supernatants were transferred to a fresh tube, and the pellet was discarded. Protein concentrations were measured by Bradford assay using Protein Assay Dye Reagent Concentrate (Bio-Rad Laboratories, 5000006). NuPage LDS sample buffer, supplemented with NuPAGE sample reducing agent (Invitrogen) were added prior to boiling for 10 min at 90 °C. Equal amounts of protein, between 8–20 µg/lane, were loaded into pre-cast 4–12% Bis-Tris gels (Invitrogen, NP0322BOX) and proteins separated in 1x MOPS buffer (Invitrogen) and transferred to nitrocellulose membrane (0.45 µM). Nitrocellulose was then blocked in 5% milk (wt/v) in TBS, 0.1% Tween (v/v) (TBST) for 1 h. Primary and secondary antibodies were diluted in 5% milk, TBST and incubated overnight at 4 °C or for 1 h at room temperature, respectively. Species-specific secondary antibodies conjugated to horseradish peroxidase (HRP) were used (anti-Mouse, Cytiva NA931V; anti-Rabbit, Cytiva NA934; anti-Sheep, Jackson 713-035-003). Membranes were washed for 1 h in TBST, changing the buffer five times, after each antibody incubation.
(§2) siRNA depletion was carried out by reverse transfection using oligofectamine (Thermo Scientific, 12252011) and lipofectamine RNAiMax (Thermo Scientific, 13778075), according to the manufacturer’s instructions, for U251 and RPE1 cells, respectively. For immunofluorescence, 1 × 10^5 cells were seeded in six-well plates and simultaneously transfected with 60 pmol siRNA duplex and 3 µl transfection reagent diluted in 200 µl Opti-MEM serum-free medium. Growth medium was added to a final volume of 2 ml. For western blotting, 1 × 10^6 cells were seeded in 10 cm dishes and transfected with 300 pmol siRNA duplex and 15 µl transfection reagent diluted in 1000 µl Opti-MEM. […]

[3] = tested on: TACC3 in RPE1 p53-/- cells; experiment: Immunofluorescence, TACC3 spindle signal intensity, RPE1 p53-/-; conditions: Aurora-A inhibitor 30 min or siRNA 48 h
Experimental: as §1
as §2, with “ml.” for “ml. For western blotting, 1 × 10^6 cells were seeded in 10 cm dishes and transfected with 300 pmol siRNA duplex and 15 µl transfection reagent diluted in 1000 µl Opti-MEM.”

Molecule	activation loop phosphorylation (pT288) of Aurora-A in mitotic cell lysates [1]	mitotic phosphorylations (PPP1CA-pT320, PRC1-pT481, Histone-H3-pS10) [2]	spindle recruitment of TACC3 [3]
5′-CAAACAACUUGGAAAUCGAtt-3′ [siCEP192]	comparable reduction in pT288 Aurora-A levels to that of TPX2	increased levels of mitotic phosphorylations	–
5′-CGGUAGUGAUAAAAGCUCAtt-3′ [siTPX2]	strongly reduced activation loop phosphorylation (pT288) of Aurora-A	increased levels of mitotic phosphorylations	fully prevented both spindle recruitment of TACC3
COc1cc(Nc2ncc3c(n2)-c2ccc(Cl)cc2C(c2c(F)cccc2OC)=NC3)ccc1C(=O)O [Alisertib]	–	–	abrogated spindle recruitment of TACC3
